Test results published in PubChem BioAssay AID256 (DTP/NCI, 2004).
Where “and” joins values, the source holds several entries; their conditions need not be identical. Identical values can stand only once. Inconclusive results and toxic doses are left out. How the source made its calls: active means survival T/C of 150% or more; inactive means T/C below 125% in these data.

System: CD2F1 mice, L1210 leukemia ip, survival T/C
Assay: NCI In Vivo Anticancer Drug Screen. Data for tumor model L1210 Leukemia (intraperitoneal) in CD2F1 (CDF1) mice
Settings: endpoint: mean survival time, higher = longer survival
How it was run: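 Antitumor effect is scored in animals hosting a serially transplanted tumor. Values compare compound-dosed animals against vehicle-only controls as a simple quotient.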

[1] = dose: 100.0 mg/kg/injection, schedule: Q01DX009 (ip), vehicle: saline with Tween-80
[2] = dose: 200.0 mg/kg/injection, schedule: Q01DX009 (ip), vehicle: saline with Tween-80
[3] = dose: 400.0 mg/kg/injection, schedule: Q01DX009 (ip), vehicle: saline with Tween-80
[4] = dose: 100.0 mg/kg/injection, schedule: Q04DX003 (ip), vehicle: saline with Tween-80
[5] = dose: 200.0 mg/kg/injection, schedule: Q04DX003 (ip), vehicle: saline with Tween-80
[6] = dose: 400.0 mg/kg/injection, schedule: Q04DX003 (ip), vehicle: saline with Tween-80

Measured: T/C

COC(=O)C(NC(=O)OCc1ccccc1)C(=O)OC
inactive: [1] 105 % of control | [2] 107 % of control | [3] 112 % of control

CC(C)OC(=O)Nc1ccc(F)cc1F
inactive: [4] 96 % of control | [5] 102 % of control | [6] 98 % of control

C[NH-].[Cl][Pt+2][Cl].[NH-]C1CC1
inactive: dose: 1.56 mg/kg/injection, schedule: Q04DX003 (ip), vehicle: saline 103 % of control | dose: 3.12 mg/kg/injection, schedule: Q04DX003 (ip), vehicle: saline with Tween-80 113 % of control | dose: 3.12 mg/kg/injection, schedule: Q04DX003 (ip), vehicle: saline 103 % of control | dose: 6.25 mg/kg/injection, schedule: Q04DX003 (ip), vehicle: saline 120 % of control | dose: 12.5 mg/kg/injection, schedule: Q04DX003 (ip), vehicle: saline with Tween-80 104 % of control

CCCCOCCN1CCN(CCCN2c3ccccc3Sc3ccc(C(F)(F)F)cc32)CC1
inactive: dose: 2.3 mg/kg/injection, schedule: Q01DX001 (ip), vehicle: saline 106 % of control | dose: 3.5 mg/kg/injection, schedule: Q01DX001 (ip), vehicle: saline 100 % of control | dose: 5.2 mg/kg/injection, schedule: Q01DX001 (ip), vehicle: saline 105 % of control | dose: 7.2 mg/kg/injection, schedule: Q01DX001 (ip), vehicle: saline 112 % of control | dose: 11.0 mg/kg/injection, schedule: Q01DX001 (ip), vehicle: saline 107 % of control | dose: 16.0 mg/kg/injection, schedule: Q01DX001 (ip), vehicle: saline 104 % of control

O=C(CSCC(=O)c1ccc(Br)cc1)c1ccc(Br)cc1
inactive: dose: 100.0 mg/kg/injection, schedule: Q01DX001 (ip), vehicle: saline 112 % of control | dose: 200.0 mg/kg/injection, schedule: Q01DX001 (ip), vehicle: saline 98 % of control | dose: 400.0 mg/kg/injection, schedule: Q01DX001 (ip), vehicle: saline 101 % of control

Nc1[nH]c(=S)[nH]c(=O)c1NC(=O)C1CC1
inactive: dose: 100.0 mg/kg/injection, schedule: Q01DX009 (ip), vehicle: saline sonified 98 % of control | dose: 200.0 mg/kg/injection, schedule: Q01DX009 (ip), vehicle: saline sonified 92 % of control | dose: 400.0 mg/kg/injection, schedule: Q01DX009 (ip), vehicle: saline sonified 98 % of control

COc1ccc(OC)c(C(=O)CCl)c1
inactive: [1] 100 % of control | [4] 96 % of control | [2] 102 % of control | [5] 101 % of control | [6] 92 % of control

Nc1cc(=O)c2ncn(C3OC(CO)C(O)C3O)c2[nH]1 (stereo not given)
inactive: dose: 25.0 mg/kg/injection, schedule: Q01DX005 (ip), vehicle: other 98 % of control | dose: 50.0 mg/kg/injection, schedule: Q01DX005 (ip), vehicle: other 93 % of control | dose: 100.0 mg/kg/injection, schedule: Q01DX005 (ip), vehicle: other 87 % of control | dose: 200.0 mg/kg/injection, schedule: Q01DX005 (ip), vehicle: other 106 % of control | dose: 400.0 mg/kg/injection, schedule: Q01DX005 (ip), vehicle: other 103 % of control

ON=C(Cc1ccccc1)Cc1ccccc1
inactive: [1] 103 % of control | [4] 102 % of control | [2] 94 % of control | [5] 100 % of control | [3] 95 % of control | [6] 105 % of control

O=C(N/N=C/c1ccccc1)c1ccc(Cl)c(Cl)c1
inactive: dose: 100.0 mg/kg/injection, schedule: Q01DX009 (ip), vehicle: Klucel (hydroxypropylcellulose) (HPC) 105 % of control | dose: 200.0 mg/kg/injection, schedule: Q01DX009 (ip), vehicle: Klucel (hydroxypropylcellulose) (HPC) 101 % of control | dose: 400.0 mg/kg/injection, schedule: Q01DX009 (ip), vehicle: Klucel (hydroxypropylcellulose) (HPC) 101 % of control

O=C(N/N=C/c1cccc([N+](=O)[O-])c1)c1ccccc1
inactive: [1] 107 % of control | [2] 102 % of control | [3] 94 % of control

Cc1ccc(-n2c(O)c(C=N)c(=O)[nH]c2=O)cc1
inactive: [4] 101 % of control | [5] 97 % of control | [6] 103 % of control

O=C(NC/C=C/Br)Nc1cnc2ccccc2c1
inactive: dose: 25.0 mg/kg/injection, schedule: Q04DX003 (ip), vehicle: saline with Tween-80 102 % of control | dose: 50.0 mg/kg/injection, schedule: Q04DX003 (ip), vehicle: saline with Tween-80 93 % of control

COc1cc2c(c(OC)c1OC)-c1ccc(SC)c(=O)cc1[C@@H](NC(=O)CCl)CC2
inactive: dose: 0.05 mg/kg/injection, schedule: Q01DX009 (ip), vehicle: water 108 % of control | dose: 0.1 mg/kg/injection, schedule: Q01DX009 (ip), vehicle: water 106 % of control | dose: 0.2 mg/kg/injection, schedule: Q01DX009 (ip), vehicle: water 115 % of control | dose: 0.4 mg/kg/injection, schedule: Q01DX009 (ip), vehicle: water 108 % of control and 111 % of control | dose: 0.8 mg/kg/injection, schedule: Q01DX009 (ip), vehicle: water 120 % of control and 108 % of control

OCCC(c1ccccc1)(c1ccccc1)c1ccccc1
inactive: dose: 6.25 mg/kg/injection, schedule: Q01DX009 (ip), vehicle: saline with Tween-80 113 % of control | dose: 12.5 mg/kg/injection, schedule: Q01DX009 (ip), vehicle: saline with Tween-80 108 % of control | dose: 25.0 mg/kg/injection, schedule: Q01DX009 (ip), vehicle: saline with Tween-80 100 % of control

O=c1c2cccc3cccc(c32)c2cc(-c3ccccc3)nn12
inactive: dose: 25.0 mg/kg/injection, schedule: Q04DX002 (ip), vehicle: saline with Tween-80 100 % of control | dose: 50.0 mg/kg/injection, schedule: Q04DX002 (ip), vehicle: saline with Tween-80 92 % of control | dose: 100.0 mg/kg/injection, schedule: Q04DX002 (ip), vehicle: saline with Tween-80 96 % of control | dose: 200.0 mg/kg/injection, schedule: Q04DX002 (ip), vehicle: saline with Tween-80 103 % of control

CCOC(=O)C(OCc1ccccc1)(C(=O)N1CCCCCC1=O)C(C)C (stereo not given)
inactive: [4] 100 % of control | [5] 105 % of control | [6] 96 % of control

COc1ccc(CCN2C(=O)C=CC2=O)cc1OC
inactive: dose: 5.0 mg/kg/injection, schedule: Q01DX001 (ip), vehicle: saline 94 % of control | dose: 5.0 mg/kg/injection, schedule: Q01DX009 (ip), vehicle: saline 94 % of control | dose: 10.0 mg/kg/injection, schedule: Q01DX001 (ip), vehicle: saline 94 % of control | dose: 10.0 mg/kg/injection, schedule: Q01DX009 (ip), vehicle: saline 97 % of control | dose: 20.0 mg/kg/injection, schedule: Q01DX001 (ip), vehicle: saline 91 % of control

Cc1ccc(S(=O)(=O)Oc2cc([N+](=O)[O-])ccc2N)cc1
inactive: dose: 100.0 mg/kg/injection, schedule: Q04DX003 (ip), vehicle: saline 95 % of control | dose: 200.0 mg/kg/injection, schedule: Q04DX003 (ip), vehicle: saline 100 % of control | dose: 400.0 mg/kg/injection, schedule: Q04DX003 (ip), vehicle: saline 103 % of control

CN1CCC(c2ccccc2)c2ccccc21 (stereo not given)
inactive: dose: 50.0 mg/kg/injection, schedule: Q04DX003 (ip), vehicle: other 97 % of control | dose: 100.0 mg/kg/injection, schedule: Q04DX003 (ip), vehicle: other 100 % of control | dose: 200.0 mg/kg/injection, schedule: Q04DX003 (ip), vehicle: other 100 % of control | dose: 400.0 mg/kg/injection, schedule: Q04DX003 (ip), vehicle: other 100 % of control

O=[N+]([O-])c1ccc(C(O)C(O)c2ccccc2)cc1 (stereo not given)
inactive: dose: 100.0 mg/kg/injection, schedule: Q01DX001 (ip), vehicle: saline with Tween-80 96 % of control | dose: 200.0 mg/kg/injection, schedule: Q01DX001 (ip), vehicle: saline with Tween-80 92 % of control | dose: 400.0 mg/kg/injection, schedule: Q01DX001 (ip), vehicle: saline with Tween-80 95 % of control
